Key:
[1] = Tail suspension test (TST); format: in vivo, mice; settings: 3 mg/kg p.o. of each drug; for Immobility time (sec, mean ± SE): 60 min before suspension, 5-15 min period, N = 7-9; for % of shortening for immobility time: versus vehicle
Text: The tail suspension test (TST) was originally described by Steru et al. […] The antidepressant activity of a test drug can be detected as an index of shortening the immobility time. This test is widely used as to an experimental animal model for predicting the antidepressant activity of a test drug in clinical settings. An automated device for performing the TST was developed by the authors of the TST (1989).^2) We improved this device and developed our own device incorporating an electric balance, an A/D converter, a testing box (30×25×25 cm), and a personal computer. The mouse was suspended from a hook hanging from the ceiling in the testing box by adhesive tape applied 20 mm from the tip of the tail. The duration of immobility was measured by the computer for a period of 15 min following the start of suspension. […] The experiments were carried out in a sound-proof room.

[2] = Augmentation therapy in major depressive disorder patients non-responsive or partially responsive to serotonin reuptake inhibitors; format: in vivo; settings: 10 to 30 mg/day for 4 to 8 weeks, added to serotonin reuptake inhibitor therapy
Procedure: Only patients with such Hamilton scores receive treatment. These patients are interviewed to obtain a complete medical and psychiatric history.
Only patients with such Hamilton scores receive treatment. These patients are interviewed to obtain a complete medical and psychiatric history. Dehydroaripiprazole is first administered at a dose of 10 mg/day and increased to 30 mg/day as needed in the opinion of the monitoring psychiatrist. Dehydroaripiprazole is administered to these patients at a dose of from 10 mg/day to 30 mg/day for a period of at least four weeks, and up to eight weeks for patients who respond well to this treatment during the first four weeks.

Row | Structure (SMILES) | Immobility time (sec, mean ± SE) [1] [s] | % of shortening for immobility time [1] [%] | symptoms of depression (Hamilton test, CGI, AIMS, SAS, Barnes) [2]
1 | O=C1CCc2ccc(OCCCCN3CCN(c4cccc(Cl)c4Cl)CC3)cc2N1 [Aripiprazole, 7-{4-[4-(2,3-Dichlorophenyl)-1-piperazinyl]-butoxy}-3,4-dihydrocarbostyril] | 486.4 ± 12.3 | 3 | improvement in alleviation of symptoms of depression
2 | CN(C)CCCC1(c2ccc(F)cc2)OCc2cc(C#N)ccc21 (centres unmarked) [Citalopram, citalopram] | 468.7 ± 24.2 | 6 | 
